This note sets out measurements from patent publication US10638756B2, “Molecules having pesticidal utility, and intermediates, compositions, and processes, related thereto” (Dow AgroSciences LLC, priority 2017, dated 2020).

In assay [1] the test system is Beet Armyworm (Spodoptera exigua). In words: Bioassay on Beet Armyworm (BAW), 128-well diet tray assay. In kind it is in vivo. Conditions: Spodoptera exigua, 168 h; 50 μg/cm^2 on artificial diet, second instar larvae, five to seven days; read-out: BAW % Control (or Mortality) rating. The protocol: (§1) Certain molecules disclosed in this document were tested against BAW and CL using procedures described in the following examples. In the reporting of the results, the “BAW & CL Rating Table” was used (See Table Section).
Bioassays on BAW were conducted using a 128-well diet tray assay. […] Trays were covered with a clear self-adhesive cover, vented to allow gas exchange, and held at 25° C., 14:10 light-dark for five to seven days. Percent mortality was recorded for the larvae in each well; activity in the eight wells was then averaged. The results are indicated in the table entitled “Table ABC: Biological Results” (See Table Section).

Assay [2] has as its system Cabbage Looper (Trichoplusia ni). In words: Bioassay on Cabbage Looper (CL), 128-well diet tray assay. The format is in vivo. The following applies: 168 h, 50 μg/cm^2 on artificial diet, second instar larvae, five to seven days, read-out: CL % Control (or Mortality) rating. The protocol:
as §1
Bioassays on CL were conducted using a 128-well diet tray assay. One to five second instar CL larvae were placed in each well (3 mL) of the diet tray that had been previously filled with 1 mL of artificial diet to which 50 μg/cm^2 of the test molecule (dissolved in 50 μL of 90:10 acetone-water mixture) had been applied (to each of eight wells) and then allowed to dry. Trays were covered with a clear self-adhesive cover, vented to allow gas exchange, and held at 25° C., 14:10 light-dark for five to seven days. Percent mortality was recorded for the larvae in each well; activity in the eight wells was then averaged. The results are indicated in the table entitled “Table ABC: Biological Results” (See Table Section).

For orientation: mortality means the percentage killed. `CN(NC(=O)c1ccc(/C(F)=C/C(c2cc(Cl)cc(OC(F)(F)F)c2)C(F)(F)F)cc1C(F)(F)F)c1ccccn1` (stereo not drawn) [F61, (Z)-4-(3-(3-Chloro-5-(trifluoromethoxy)phenyl)-1,4,4,4-tetrafluorobut-1-en-1-yl)-N′-methyl-N′-(pyridin-2-yl)-2-(trifluoromethyl)benzohydrazide]: the mortality at 50 µg/cm2 in assay [1] and in assay [2] was 50 to 100% each time.
As for `O=C(Nn1ccnn1)c1ccc(/C(F)=C/C(c2cc(Cl)c(Cl)c(Cl)c2)C(F)(F)F)cc1C(F)(F)F` (stereo not drawn) [F62, (Z)-4-(1,4,4,4-Tetrafluoro-3-(3,4,5-trichlorophenyl)but-1-en-1-yl)-N-(1H-1,2,3-triazol-1-yl)-2-(trifluoromethyl)benzamide], the mortality at 50 µg/cm2 in assay [1] and in assay [2] was 50 to 100% each time.
As to `Cc1ccc(NNC(=O)c2ccc(/C(F)=C/C(c3cc(Cl)c(Cl)c(Cl)c3)C(F)(F)F)cc2C(F)(F)F)cc1` (stereo not drawn) [F68, (Z)-4-(1,4,4,4-Tetrafluoro-3-(3,4,5-trichlorophenyl)but-1-en-1-yl)-N′-(p-tolyl)-2-(trifluoromethyl)benzohydrazide], the mortality at 50 µg/cm2 in assay [1] and in assay [2] was 50 to 100% throughout.
As for `O=C(NNc1c(Cl)cnc(C(Cl)(Cl)Cl)c1Cl)c1ccc(/C(F)=C/C(c2cc(Cl)c(Cl)c(Cl)c2)C(F)(F)F)cc1C(F)(F)F` (stereo not drawn) [F69, (Z)—N′-(3,5-Dichloro-2-(trichloromethyl)-4-pyridin-4-yl)-4-(1,4,4,4-tetrafluoro-3-(3,4,5-trichlorophenyl)but-1-en-1-yl]-2-(trifluoromethyl)benzohydrazide], the mortality at 50 µg/cm2 in assay [1] and in assay [2] was 0% in each case.
Regarding `O=C(NNc1ccc(C(F)(F)F)cc1)c1ccc(/C(F)=C/C(c2cc(Cl)c(Cl)c(Cl)c2)C(F)(F)F)cc1C(F)(F)F` (stereo not drawn) [F70, (Z)-4-(1,4,4,4-tetrafluoro-3-(3,4,5-trichlorophenyl)but-1-en-1-yl)-2-(trifluoromethyl)-N′-(4-(trifluoromethyl)phenyl)benzohydrazide], the mortality at 50 µg/cm2 in assay [1] and in assay [2] was 50 to 100% throughout.
On to `Cc1cc(C)c(NNC(=O)c2ccc(/C(F)=C/C(c3cc(Cl)c(Cl)c(Cl)c3)C(F)(F)F)cc2C(F)(F)F)c(C)c1` (stereo not drawn) [F73, (Z)—N′-Mesityl-4-(1,4,4,4-tetrafluoro-3-(3,4,5-trichlorophenyl)but-1-en-1-yl)-2-(trifluoromethyl)benzohydrazide], for which the figures for the mortality at 50 µg/cm2 in assay [1] and in assay [2] were 50 to 100% and 0 to 50%, respectively.
With `O=C(NNc1ncccn1)c1ccc(/C(F)=C\C(c2cc(Cl)c(Cl)c(Cl)c2)C(F)(F)F)cc1C(F)(F)F` (stereo not drawn) [F74, (E)-N′-(pyrimidin-2-yl)-4-(1,4,4,4-tetrafluoro-3-(3,4,5-trichlorophenyl)but-1-en-1-yl)-2-(trifluoromethyl)benzohydrazide], the mortality at 50 µg/cm2 in assay [1] and in assay [2] was 50 to 100% each time.
Take `Cc1nc(C)c(C)c(NNC(=O)c2ccc(/C(F)=C/C(c3cc(Cl)c(Cl)c(Cl)c3)C(F)(F)F)cc2C(F)(F)F)n1` (stereo not drawn) [F75, (Z)-4-(1,4,4,4-Tetrafluoro-3-(3,4,5-trichlorophenyl)but-1-en-1-yl)-2-(trifluoromethyl)-N′-(2,5,6-trimethylpyrimidin-4-yl)benzohydrazide]: the mortality at 50 µg/cm2 in assay [1] and in assay [2] was 50 to 100% each time.
As for `O=C(NNc1ncccn1)c1ccc(/C(F)=C/C(c2cc(Cl)cc(C(F)(F)F)c2)C(F)(F)F)cc1C(F)(F)F` (stereo not drawn) [F77, (Z)-4-(3-(3-Chloro-5-(trifluoromethyl)phenyl)-1,4,4,4-tetrafluorobut-1-en-1-yl)-N′-(pyrimidin-2-yl)-2-(trifluoromethyl)benzohydrazide], the mortality at 50 µg/cm2 in assay [1] and in assay [2] was 50 to 100% throughout.
As to `Cc1nc(Cl)cc(NNC(=O)c2ccc(/C(F)=C/C(c3cc(Cl)c(Cl)c(Cl)c3)C(F)(F)F)cc2C(F)(F)F)n1` (stereo not drawn) [F79, (Z)—N′-(6-Chloro-2-methylpyrimidin-4-yl)-4-(1,4,4,4-tetrafluoro-3-(3,4,5-trichlorophenyl)but-1-en-1-yl)-2-(trifluoromethyl)benzohydrazide], the mortality at 50 µg/cm2 in assay [1] and in assay [2] was 50 to 100% throughout.
With `CN(NC(=O)c1ccc(/C(F)=C/C(c2cc(Cl)cc(C(F)(F)F)c2)C(F)(F)F)cc1C(F)(F)F)c1ncccn1` (stereo not drawn) [F83, (Z)-4-(3-(3-Chloro-5-(trifluoromethyl)phenyl)-1,4,4,4-tetrafluorobut-1-en-1-yl)-N′-methyl-N′-(pyrimidin-2-yl)-2-(trifluoromethyl)benzohydrazide], the mortality at 50 µg/cm2 in assay [1] and in assay [2] was 50 to 100% in each case.
On to `CCc1cnc(NNC(=O)c2ccc(/C(F)=C/C(c3cc(Cl)c(Cl)c(Cl)c3)C(F)(F)F)cc2C(F)(F)F)nc1` (stereo not drawn) [F84, (Z)—N′-(5-Ethylpyrimidin-2-yl)-4-(1,4,4,4-tetrafluoro-3-(3,4,5-trichlorophenyl)but-1-en-1-yl)-2-(trifluoromethyl)benzohydrazide], for which the mortality at 50 µg/cm2 in assay [1] and in assay [2] was 50 to 100% in each case.
Turning to `Cc1cc(C)nc(NNC(=O)c2ccc(/C(F)=C/C(c3cc(Cl)c(Cl)c(Cl)c3)C(F)(F)F)cc2C(F)(F)F)n1` (stereo not drawn) [F85, (Z)—N′-(4,6-Dimethylpyrimidin-2-yl)-4-(1,4,4,4-tetrafluoro-3-(3,4,5-trichlorophenyl)but-1-en-1-yl)-2-(trifluoromethyl)benzohydrazide], the mortality at 50 µg/cm2 in assay [1] and in assay [2] was 50 to 100% throughout.
As for `O=C(NNc1cccnn1)c1ccc(/C(F)=C/C(c2cc(Cl)c(Cl)c(Cl)c2)C(F)(F)F)cc1C(F)(F)F` (stereo not drawn) [F86], the mortality at 50 µg/cm2 in assay [1] and in assay [2] was 50 to 100% throughout.
With `O=C(NNc1c(Cl)cc(C(F)(F)F)cc1Cl)c1ccc(/C(F)=C/C(c2cc(Cl)c(Cl)c(Cl)c2)C(F)(F)F)cc1C(F)(F)F` (stereo not drawn) [F87, (Z)—N′-(2,6-Dichloro-4-(trifluoromethyl)phenyl)-4-(1,4,4,4-tetrafluoro-3-(3,4,5-trichlorophenyl)but-1-en-1-yl)-2-(trifluoromethyl)benzohydrazide], the mortality at 50 µg/cm2 in assay [1] and in assay [2] was 0% each time.
On to `O=C(Nn1ccc2ccccc21)c1ccc(/C(F)=C/C(c2cc(Cl)c(Cl)c(Cl)c2)C(F)(F)F)cc1C(F)(F)F` (stereo not drawn) [F89, (Z)—N-(1H-Indol-1-yl)-4-(1,4,4,4-tetrafluoro-3-(3,4,5-trichlorophenyl)but-1-en-1-yl)-2-(trifluoromethyl)benzamide], for which the mortality at 50 µg/cm2 in assay [1] and in assay [2] was 50 to 100% each time.
Consider `COc1cnc(NNC(=O)c2ccc(/C(F)=C/C(c3cc(Cl)c(Cl)c(Cl)c3)C(F)(F)F)cc2C(F)(F)F)nc1` (stereo not drawn) [F90, (Z)—N′-(5-Methoxypyrimidin-2-yl)-4-(1,4,4,4-tetrafluoro-3-(3,4,5-trichlorophenyl)but-1-en-1-yl)-2-(trifluoromethyl)benzohydrazide], for which the mortality at 50 µg/cm2 in assay [1] and in assay [2] was 50 to 100% in each case.
For the compound `CN(NC(=O)c1ccc(/C(F)=C/C(c2cc(Cl)c(Cl)c(Cl)c2)C(F)(F)F)cc1C(F)(F)F)c1nccc(C(F)(F)F)n1` (stereo not drawn) [F91, (Z)—N′-methyl-4-(1,4,4,4-tetrafluoro-3-(3,4,5-trichlorophenyl)but-1-en-1-yl)-2-(trifluoromethyl)-N′-(4-(trifluoromethyl)pyrimidin-2-yl)benzohydrazide], the mortality at 50 µg/cm2 in assay [1] and in assay [2] was 50 to 100% throughout.
